Non-standard residues stand in square brackets, D forms with d. Residues, ends and D or L forms follow the SMILES beside them. No end group written: not given here. *: point of attachment. X1 = NCCCCCCCCCCCCCCCCCC(=O)*; 12Ado = NCCCCCCCCCCCC(=O)O
What follows are compounds tested against T1, IL-6 (Homo sapiens, UniProt P05231) (assay: Activity for inhibition of binding of IL-6 to receptor by peptide (IL-6 receptor expression cells, FITC labeled anti-IL-6 antibody)). Conditions: 5 μg of the peptide, 50 ng of IL-6, 10^5 IL-6 receptor expression cells, 4° C for one hour.
T1 construct: purchased Genzyme Corp
Method: A human lymphocyte fraction was obtained from human peripheral blood with Ficoll-Paque (manufactured by Pharmacia-LKB). The fraction was reacted with a cultured supernatant of Epstein-Barr Virus producing cell strain B958 to transform the human lymphocytes to obtain IL-6 receptor expression cells.
1 mg of anti-human IL-6 antibody [Rabbit Anti-human Interleukin-6, manufactured by Genzyme Corp.] was dissolved in a 0.05M carbonate buffer solution (pH: 9.5) and to the resulting solution was added 10 μg of FITC [Fluorescein isothiocyanate, manufactured by Sigma Corp.]. The mixture was stirred at 4° C. overnight. The resulting solution was passed through PD-10 column (manufactured by Pharmacia-LKB) to obtain FITC labeled anti-IL-6 antibody as a firstly eluted fraction.
10^5 IL-6 receptor expression cells were suspended in 0.5 % BSA (bovine serum albumin, manufactured by Sigma Corp.)-PBS (a phosphate buffer solution containing 0.15 M sodium chloride, pH 7.4) and to the resulting suspension were added 50 ng of IL-6 (Human recombinant interleukin-6, manufactured by Genzyme Corp.) and 5 μg of the peptide obtained in any one of Examples 1 to 96. The suspension was allowed to stand at 4° C for one hour. Then, after washing the cells centrifugally with 0.5% BSA-PBS three times (1200 rpm, 5 min.), 1 μg of FITC labeled anti-IL-6 antibody was added and the mixture was allowed to stand at 4° C. for 30 minutes. After washing with 0.5% BSA-PBS three times, the intensity of fluorescence of the cells was determined. The binding inhibition activity of the peptide of each Example was evaluated, by taking the value obtained without addition of the peptide as a control and taking the value- obtained without addition of IL-6 as a blank, according to the following formula: [formula]

T1 sequence (P05231 30-212): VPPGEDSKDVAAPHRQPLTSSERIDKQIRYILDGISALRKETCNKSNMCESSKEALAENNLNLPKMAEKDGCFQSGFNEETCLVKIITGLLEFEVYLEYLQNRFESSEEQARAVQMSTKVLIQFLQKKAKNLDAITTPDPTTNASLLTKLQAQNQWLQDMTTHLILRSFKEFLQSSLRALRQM

Binding inhibition activity (%)	Compound
35%	CC(C)C[C@H](NC(=O)[C@H](Cc1c[nH]c2ccccc12)NC(=O)[C@H](CCCNC(=N)N)NC(=O)[C@@H]1CCCN1C(=O)[C@H](CC(N)=O)NC(=O)CCCCCCCCCCCCCCCCCN)C(=O)N[C@@H](CO)C(=O)N[C@H](C(=O)N[C@H](C(=O)N[C@@H](Cc1c[nH]c2ccccc12)C(=O)N[C@@H](CCC(N)=O)C(=O)N[C@@H](CC(=O)O)C(=O)N1CCC[C@H]1C(=O)N[C@@H](Cc1c[nH]cn1)C(=O)N[C@@H](CO)C(=O)NCC(=O)O)[C@@H](C)O)C(C)C [Example 52] (X1-NPRWLSVTWQDPHSG-OH)
60%	CC(C)C[C@H](NC(=O)[C@H](CCC(=O)O)NC(=O)[C@H](Cc1ccccc1)NC(=O)[C@H](CCCNC(=N)N)NC(=O)[C@H](CC(C)C)NC(=O)[C@H](CCCNC(=N)N)NC(=O)[C@H](Cc1ccc(O)cc1)NC(=O)[C@H](Cc1ccccc1)NC(=O)[C@H](CO)NC(=O)[C@H](CO)NC(=O)[C@H](CC(N)=O)NC(=O)[C@H](Cc1c[nH]c2ccccc12)NC(=O)[C@H](CO)NC(=O)[C@H](Cc1c[nH]cn1)NC(=O)CCCCCCCCCCCN)C(=O)N[C@@H](CCCNC(=N)N)C(=O)N[C@@H](Cc1ccc(O)cc1)C(=O)N[C@@H](CCCNC(=N)N)C(=O)N[C@@H](C)C(=O)N[C@@H](CCC(=O)O)C(=O)N[C@@H](CCCNC(=N)N)C(=O)N[C@@H](CO)C(=O)N[C@@H](CCCCN)C(=O)N[C@@H](CCC(=O)O)C(=O)N[C@@H](CCC(=O)O)C(=O)N[C@@H](CCC(=O)O)C(=O)N[C@@H](CCC(=O)O)C(=O)N[C@@H](CCC(=O)O)C(=O)O [Example 59] (H-[12Ado]HSWNSSFYRLRFELRYRAERSKEEEEE-OH)
58%	CC(C)C[C@H](NC(=O)[C@H](CCC(=O)O)NC(=O)[C@H](Cc1ccccc1)NC(=O)[C@H](CCCNC(=N)N)NC(=O)[C@H](CC(C)C)NC(=O)[C@H](CCCNC(=N)N)NC(=O)[C@H](Cc1ccc(O)cc1)NC(=O)[C@H](Cc1ccccc1)NC(=O)[C@H](CO)NC(=O)[C@H](CO)NC(=O)[C@H](CC(N)=O)NC(=O)[C@H](Cc1c[nH]c2ccccc12)NC(=O)[C@H](CO)NC(=O)[C@H](Cc1c[nH]cn1)NC(=O)CCCCCCCCCCCCCCCCCN)C(=O)N[C@@H](CCCNC(=N)N)C(=O)N[C@@H](Cc1ccc(O)cc1)C(=O)N[C@@H](CCCNC(=N)N)C(=O)N[C@@H](C)C(=O)N[C@@H](CCC(=O)O)C(=O)N[C@@H](CCCNC(=N)N)C(=O)N[C@@H](CO)C(=O)N[C@@H](CCCCN)C(=O)NCC(=O)O [Example 60] (X1-HSWNSSFYRLRFELRYRAERSKG-OH)
63%	CC(C)C[C@H](NC(=O)[C@H](CCC(=O)O)NC(=O)[C@H](Cc1ccccc1)NC(=O)[C@H](CCCNC(=N)N)NC(=O)[C@H](CC(C)C)NC(=O)[C@H](CCCNC(=N)N)NC(=O)[C@H](Cc1ccc(O)cc1)NC(=O)[C@H](Cc1ccccc1)NC(=O)[C@H](CO)NC(=O)[C@H](CO)NC(=O)[C@H](CC(N)=O)NC(=O)[C@H](Cc1c[nH]c2ccccc12)NC(=O)[C@H](CO)NC(=O)[C@H](Cc1c[nH]cn1)NC(=O)[C@@H]1CCCN1C(=O)[C@H](CC(=O)O)NC(=O)CCCCCCCCCCCN)C(=O)N[C@@H](CCCNC(=N)N)C(=O)N[C@@H](Cc1ccc(O)cc1)C(=O)N[C@@H](CCCNC(=N)N)C(=O)N[C@@H](C)C(=O)N[C@@H](CCC(=O)O)C(=O)N[C@@H](CCCNC(=N)N)C(=O)N[C@@H](CO)C(=O)N[C@@H](CCCCN)C(=O)N[C@@H](CCC(=O)O)C(=O)N[C@@H](CCC(=O)O)C(=O)N[C@@H](CCC(=O)O)C(=O)N[C@@H](CCC(=O)O)C(=O)N[C@@H](CCC(=O)O)C(=O)O [Example 75] (H-[12Ado]DPHSWNSSFYRLRFELRYRAERSKEEEEE-OH)
60%	CC(C)C[C@H](NC(=O)[C@H](CCC(=O)O)NC(=O)[C@H](Cc1ccccc1)NC(=O)[C@H](CCCNC(=N)N)NC(=O)[C@H](CC(C)C)NC(=O)[C@H](CCCNC(=N)N)NC(=O)[C@H](Cc1ccc(O)cc1)NC(=O)[C@H](Cc1ccccc1)NC(=O)[C@H](CO)NC(=O)[C@H](CO)NC(=O)[C@H](CC(N)=O)NC(=O)[C@H](Cc1c[nH]c2ccccc12)NC(=O)[C@H](CO)NC(=O)[C@H](Cc1c[nH]cn1)NC(=O)[C@@H]1CCCN1C(=O)[C@H](CC(=O)O)NC(=O)[C@H](CCC(N)=O)NC(=O)[C@H](Cc1c[nH]c2ccccc12)NC(=O)CCCCCCCCCCCN)C(=O)N[C@@H](CCCNC(=N)N)C(=O)N[C@@H](Cc1ccc(O)cc1)C(=O)N[C@@H](CCCNC(=N)N)C(=O)N[C@@H](C)C(=O)N[C@@H](CCC(=O)O)C(=O)N[C@@H](CCCNC(=N)N)C(=O)N[C@@H](CO)C(=O)N[C@@H](CCCCN)C(=O)N[C@@H](CCC(=O)O)C(=O)N[C@@H](CCC(=O)O)C(=O)N[C@@H](CCC(=O)O)C(=O)N[C@@H](CCC(=O)O)C(=O)N[C@@H](CCC(=O)O)C(=O)O [Example 91] (H-[12Ado]WQDPHSWNSSFYRLRFELRYRAERSKEEEEE-OH)
62%	CC(C)C[C@H](NC(=O)[C@H](CCC(=O)O)NC(=O)[C@H](Cc1ccccc1)NC(=O)[C@H](CCCNC(=N)N)NC(=O)[C@H](CC(C)C)NC(=O)[C@H](CCCNC(=N)N)NC(=O)[C@H](Cc1ccc(O)cc1)NC(=O)[C@H](Cc1ccccc1)NC(=O)[C@H](CO)NC(=O)[C@H](CO)NC(=O)[C@H](CC(N)=O)NC(=O)[C@H](Cc1c[nH]c2ccccc12)NC(=O)[C@H](CO)NC(=O)[C@H](Cc1c[nH]cn1)NC(=O)[C@@H]1CCCN1C(=O)[C@H](CC(=O)O)NC(=O)[C@H](CCC(N)=O)NC(=O)[C@H](Cc1c[nH]c2ccccc12)NC(=O)CCCCCCCCCCCCCCCCCN)C(=O)N[C@@H](CCCNC(=N)N)C(=O)N[C@@H](Cc1ccc(O)cc1)C(=O)N[C@@H](CCCNC(=N)N)C(=O)N[C@@H](C)C(=O)N[C@@H](CCC(=O)O)C(=O)N[C@@H](CCCNC(=N)N)C(=O)N[C@@H](CO)C(=O)N[C@@H](CCCCN)C(=O)NCC(=O)O [Example 92] (X1-WQDPHSWNSSFYRLRFELRYRAERSKG-OH)
59%	DDDDDDPHSWNSSFYRLRFELRYRAERSKAAG-NH2 [Example 80]
31%	DDDDDGTVHLLVDVPPEEPQLSCFRKAAG-NH2 [Example 16]
55%	DDDDDHSWNSSFYRLRFELRYRAERSKAAG-NH2 [Example 64]
25%	DDDDDNPRWLSVTWQDPHSAAG-NH2 [Example 56]
57%	DDDDDPHSWNSSFYRLRFELRYRAERSKAAG-NH2 [Example 72]
44%	DDDDDQALTTNKDDDNILFRDSAAAG-NH2 [Example 32]
66%	DDDDDQDPHSWNSSFYRLRFELRYRAERSKAAG-NH2 [Example 88]
55%	DDDDDRKFQNSPAEDFQEPCQYSQESAAG-NH2 [Example 24]
37%	DDDDDTSLPGDSVTLTCPGVEPEDAAG-NH2 [Example 8]
37%	DDDDDWNSSFYRLRFELRYRAERSKAAG-NH2 [Example 40]
52%	DDDDDWQDPHSWNSSFYRLRFELRYRAERSKAAG-NH2 [Example 96]
58%	DPHSWNSSFYRLRFELRYRAERSK [Example 77]
71%	DPHSWNSSFYRLRFELRYRAERSKK [Example 73]

Binding inhibition activity (%)	Compound
62%	EEEDPHSWNSSFYRLRFELRYRAERSKKG-NH2 [Example 79]
30%	EEEGTVHLLVDVPPEEPQLSCFRKKG-NH2 [Example 15]
51%	EEEHSWNSSFYRLRFELRYRAERSKKG-NH2 [Example 63]
28%	EEENPRWLSVTWQDPHSKG-NH2 [Example 55]
60%	EEEPHSWNSSFYRLRFELRYRAERSKKG-NH2 [Example 71]
72%	EEEQDPHSWNSSFYRLRFELRYRAERSKKG-NH2 [Example 87]
58%	EEERKFQNSPAEDFQEPCQYSQESKG-NH2 [Example 23]
38%	EEETSLPGDSVTLTCPGVEPEDKG-NH2 [Example 7]
58%	EEEWNSSFYRLRFELRYRAERSKKG-NH2 [Example 39]
65%	EEEWQDPHSWNSSFYRLRFELRYRAERSKKG-NH2 [Example 95]
25%	GTVHLLVDVPPEEPQLSCFRK [Example 13]
30%	GTVHLLVDVPPEEPQLSCFRKK [Example 9]
45%	HSWNSSFYRLRFELRYRAERSK [Example 61]
63%	HSWNSSFYRLRFELRYRAERSKK [Example 57]
60%	KDPHSWNSSFYRLRFELRYRAERSKD-NH2 [Example 78]
32%	KGTVHLLVDVPPEEPQLSCFRKD-NH2 [Example 14]
50%	KHSWNSSFYRLRFELRYRAERSKD-NH2 [Example 62]
70%	KKDPHSWNSSFYRLRFELRYRAERSK [Example 74]

Compound	Binding inhibition activity (%)
H-Thr-Ser-Leu-Pro-Gly-Ser-Val-Thr-Leu-Thr-Cys-Pro-Gly-Val-Glu-Pro-Glu-Asp- Lys-OH (H-TSLPGSVTLTCPGVEPEDK-OH) [Example 1]	38%
